{"source": "patent US12594435B2", "about": "“Interstitial photodynamic therapy” (Simphotek, Inc., priority 2020, dated 2026)", "origin": "cited, not measured here", "key": {"tumors in mice": {"test_system": "tumors in mice", "conditions": "for Threshold [^1O2]dose: superficial PDT"}, "[1]": {"conditions": "for β, k4/k2 / ξ photokinetic parameter / σ, k1/(k7[A]): Table 6, Zhu et. al. 2015, Ong et al 2018"}, "Human prostate": {"test_system": "Human prostate", "conditions": "Davidson et.al., 2009"}, "experimental tumours [2]": {"test_system": "experimental tumours", "conditions": "Rabbits, Shafirstein et. al., 2018"}, "experimental tumours [3]": {"test_system": "experimental tumours", "conditions": "Mice, Shafirstein et. al., 2018"}, "[4]": {"conditions": "Zhu et. al., 2015, labeled [^1O2]rx in the publication"}, "[5]": {"conditions": "surface PDT, Sheng et. al., 2019"}, "[6]": {"conditions": "I-PDT with light dose as dose metric"}, "[7]": {"conditions": "simulation parameter used in Dosie simulations, Examples 3 and 4"}, "[8]": {"conditions": "vascular PDT, Sheng et. al., 2020"}}, "note": "Like-named read-outs stand apart in the source and are kept apart here.", "data": [{"compound": "2-(1-Hexyloxyethyl)-2-devinyl pyropheophorbide [HPPH]", "values": [{"measurement": "Threshold [^1O2]dose", "setting": "tumors in mice; Penjweini et. al., 2016", "result": "0.98 ± 0.11 (Penjweini et. al., mM"}, {"measurement": "Threshold PDT-dose", "setting": "tumors in mice; surface PDT, Penjweini et. al., 2016", "result": "52.62 ± 14.9 (Penjweini et. al., μM J/cm^2"}]}, {"compound": "CC[C@H]1c2cc3[n-]c4c(c3C)C(=O)[C@H](C(=O)OC)c4c3nc(cc4[n-]c(cc(n2)[C@@H]1C)c(C(C)=O)c4C)[C@@H](C)[C@@H]3CCC(=O)O.[Pd+2]", "note": "[Tookad]", "values": [{"measurement": "β, k4/k2", "setting": "[1]", "result": "Tookad: 11.9 μM"}, {"measurement": "ξ photokinetic parameter", "setting": "[1]", "result": "Tookad: 122 × 10^−3 cm^2mW^−1s^−1"}, {"measurement": "σ, k1/(k7[A])", "setting": "[1]", "result": "Tookad: 2.6 × 10^−5 μM^−1"}, {"measurement": "Threshold Light Dose", "setting": "Human prostate", "result": ">23 (Davidson et.al., 2009) J/cm^2"}]}, {"compound": "Oc1cccc(-c2c3nc(c(-c4cccc(O)c4)c4ccc([nH]4)c(-c4cccc(O)c4)c4nc(c(-c5cccc(O)c5)c5ccc2[nH]5)CC4)C=C3)c1", "note": "[mTHPC]", "values": [{"measurement": "ε, PS extinction coefficient", "setting": "[1]; 650 nm", "result": "mTHPC (650 nm): 0.048 cm^−1μM^−1"}, {"measurement": "β, k4/k2", "setting": "[1]", "result": "mTHPC: 8.7 μM"}, {"measurement": "ξ photokinetic parameter", "setting": "[1]", "result": "mTHPC: 30.0 × 10^−3 cm^2mW^−1s^−1"}, {"measurement": "σ, k1/(k7[A])", "setting": "[1]", "result": "mTHPC: 2.97 × 10^−5 μM^−1"}]}, {"compound": "Photofrin", "values": [{"measurement": "Threshold [^1O2]dose", "setting": "tumors in mice; Qiu et. al., 2016", "result": "> 1.0 (Qiu et. al., 2016) mM"}, {"measurement": "Threshold [^1O2]dose", "setting": "tumors in mice; [4]", "result": "0.56 ± 0.26 (Zhu et. al., 2015) mM"}, {"measurement": "Threshold Light Dose", "setting": "tumors in mice; [5]", "result": "Approx. 100 (Sheng et. al., 2019) J/cm^2"}, {"measurement": "Threshold PDT-dose", "setting": "tumors in mice; [5]", "result": "439 (Sheng et. al., 2019) μM J/cm^2"}, {"measurement": "Threshold Fluence Rate φT", "setting": "experimental tumours [2]; [6]", "result": "16.5 (Shafirstein et. al., 2018) mW/cm^2"}, {"measurement": "Threshold Light Dose", "setting": "experimental tumours [2]; I-PDT", "result": "≥45 (Shafirstein et. al., 2018) J/cm^2"}, {"measurement": "ε, PS extinction coefficient", "setting": "[1]; 630 nm", "result": "Photofrin (630 nm): 0.0035 cm^−1μM^−1"}, {"measurement": "β, k4/k2", "setting": "[1]", "result": "Photofrin: 11.9 μM"}, {"measurement": "ξ photokinetic parameter", "setting": "[1]", "result": "Photofrin: 3.7 × 10^−3 cm^2mW^−1s^−1"}, {"measurement": "σ, k1/(k7[A])", "setting": "[1]", "result": "Photofrin: 7.6 × 10^−5 μM^−1"}, {"measurement": "β", "setting": "[1]; [7]", "result": 11.9}, {"measurement": "δ, low concentration correction", "setting": "[1]; [7]", "result": 33}, {"measurement": "ξ", "setting": "[1]; [7]", "result": "3.7E-03"}, {"measurement": "σ", "setting": "[1]; [7]", "result": "7.6E-05"}, {"measurement": "Threshold Fluence Rate φT", "setting": "experimental tumours [3]; [6]", "result": "8.4 (Shafirstein et. al., 2018) mW/cm^2"}, {"measurement": "Threshold Light Dose", "setting": "experimental tumours [3]; I-PDT", "result": "≥45 (Shafirstein et. al., 2018) J/cm^2"}]}, {"compound": "benzoporphyrin derivative monoacid ring A [BPD]", "values": [{"measurement": "Threshold [^1O2]dose", "setting": "tumors in mice; Kim et. al. 2017", "result": "0.98 ± 012 (Kim et. al. 2017) mM"}, {"measurement": "Threshold [^1O2]dose", "setting": "tumors in mice; [4]", "result": "0.72 ± 0.21 (Zhu et. al., 2015) mM"}, {"measurement": "Threshold PDT-dose", "setting": "tumors in mice; surface PDT, Kim et. al., 2017", "result": "58 ± 12 (Kim et. al., 2017) μM J/cm^2"}, {"measurement": "Threshold Light Dose", "setting": "tumors in mice; [8]", "result": "Approx. 40 (vascular, Sheng et. J/cm^2"}, {"measurement": "Threshold PDT-dose", "setting": "tumors in mice; [8]", "result": "7.5 (vascular, Sheng et. al., μM J/cm^2"}, {"measurement": "ε, PS extinction coefficient", "setting": "[1]; 690 nm", "result": "BPD (690 nm): 0.0783 cm^−1μM^−1"}, {"measurement": "β, k4/k2", "setting": "[1]", "result": "BPD: 11.9 μM"}, {"measurement": "ξ photokinetic parameter", "setting": "[1]", "result": "BPD: 51.0 × 10^−3 cm^2mW^−1s^−1"}, {"measurement": "σ, k1/(k7[A])", "setting": "[1]", "result": "BPD: 1.7 × 10^−5 μM^−1"}]}]}
